US20210379070A1, “MALONATE SALT OF VARLITINIB” (Aslan Pharmaceuticals PTE LTD, priority 2018, published 2021)
Entries after “also recorded” stand apart in the source; their conditions may differ.

What was measured:
Format in all cases: physicochemical
[1] = Thermodynamic solubility (slurry in media of pH 1, 4.5 and 6.8, ca. 48 hours, HPLC; solids by XRPD); settings: for Solid form by XRPD after thermodynamic solubility slurry: pH 1, 4.5, 6.8 media
Procedure: Slurries of each potential salt were created in media of pH 1; 4.5 and 6.8 and shaken for ca. 48 hours. The resulting solution was then analysed by HPLC and the concentration of material dissolved calculated. Remaining solids were analysed by XRPD to determine if any changes had occurred on slurrying.

[2] = Aqueous solubility (slurry in deionised water, 4 and 24 hours, room temperature, HPLC; solids by XRPD); settings: for Solid form by XRPD after aqueous solubility slurry: 4 and 24 hours; for Aqueous solubility: room temperature
Procedure: Slurries of each potential salt were created in deionised water and agitated for 4 and 24 hours at room temperature. After both 4 and 24 hours, the resulting solutions were analysed by HPLC and the concentration of material dissolved calculated. Remaining solids were analysed by XRPD to determine if any changes had occurred on slurrying.

[3] = Stability (storage) testing, 1 week, XRPD; settings: for Storage testing (solid form by XRPD): ambient light, 40° C./75% RH and 80° C., 1 week
Procedure: Each potential salt was exposed to environments of 40° C./75% RH, elevated temperature (80° C.) and ambient light (ca. 22° C. in a closed vial), for 1 week to determine stability. Resulting solids were analysed by XRPD to establish if any changes had occurred.

[4] = Salt disproportionation studies (slurry in water, XRPD at 1, 24 & 48 hours); settings: room temperature, 1, 24 & 48 hours
Procedure: Salt Disproportionation Studies
Each potential salt was slurried in water at room temperature (ca. 22° C.), with the excess solid taken at 1, 24 & 48 hours and analysed by XRPD. The pH of the supernatant was also monitored.

[5] = Hydration studies (slurry in acetone:water 3, 5 and 10% water, ca. 48 hours, XRPD)
Procedure: Slurries of each potential salt were created in acetone:water mixtures (3, 5 and 10% water) and shaken for ca. 48 hours. The resulting solid was then analysed by XRPD to determine if any changes had occurred on slurrying.

[6] = Dynamic Vapour Sorption (DVS); settings: for Solid form by XRPD post DVS: after exposure to varying % RH; for DVS water uptake: between 20-70% RH
Procedure: Dynamic Vapour Sorption (DVS)
Approximately 10 mg of sample was placed into a mesh vapour sorption balance pan and loaded into a DVS-1 dynamic vapour sorption balance by Surface Measurement Systems. The sample was subjected to a ramping profile from 20-90% relative humidity (RH) at 10% increments maintaining the sample at each step until a stable weight had been achieved (99.5% step completion). After completion of the sorption cycle, the sample was dried using the same procedure, but all the way down to 0% RH and finally taken back to the starting point of 20% RH. The weight change during the sorption/desorption cycles were plotted, allowing for the hygroscopic nature of the sample to be determined.

[7] = Thermal analysis (TG/DTA, DSC): onset of degradation; settings: TG/DTA (TGA)
Procedure: Thermogravimetric Analysis (TGA)
Approximately, 5 mg of material was accurately weighed into an open aluminium pan and loaded into a simultaneous thermogravimetric/differential thermal analyser (TG/DTA) and held at room temperature. The sample was then heated at a rate of 10° C./min from 25° C. to […] the change in sample weight was recorded along with any differential thermal events (DTA). Nitrogen was used as the purge gas, at a flow rate of 100 cm^3/min.
Differential Scanning calorimetry (DSC)
Approximately, 5 mg of material was weighed into an aluminium DSC pan and sealed non-hermetically with a pierced aluminium lid. The sample pan was then loaded into a Seiko DSC6200 (equipped with a cooler). The sample and reference were heated to ca. 220° C. at a scan rate of 10° C./min and the resulting heat flow response monitored.

Row | Thermodynamic solubility ([1]; pH1, ca. 48 hours) | Thermodynamic solubility ([1]; pH 4.5, ca. 48 hours) | Thermodynamic solubility ([1]; pH 6.8, ca. 48 hours) | Aqueous solubility ([2]; 4 hours) | Aqueous solubility ([2]; 24 hours) | Storage testing (solid form by XRPD) [3] | DVS water uptake [6] | DVS water uptake overall [6] | Onset of degradation [7] | Hygroscopicity ([6]; DVS) | SMILES | Solid form by XRPD after thermodynamic solubility slurry [1] | Solid form by XRPD after aqueous solubility slurry [2] | Salt disproportionation on slurrying in water [4] | Hydration study (solid form after slurrying) [5] | Solid form by XRPD post DVS [6] | Overall stability in the secondary screen tests ([3]; conclusion over all tests employed)
1 | 1213.8 µg/mL | 3.6 µg/mL | < 0.445 µg/mL | 0.2570 mg/mL | 0.4089 mg/mL | remain unchanged | 1.95% | 2.84% | ca. 150 °C | – | C[C@@H]1COC(Nc2ccc3ncnc(Nc4ccc(OCc5nccs5)c(Cl)c4)c3c2)=N1.O=C(O)/C=C\C(=O)O [maleate salt] | A change in solid form was observed by XRPD from pH1 and pH4.5 | remained unchanged after slurrying, with a potential increase in amorphous content | no change in form of the maleate salt on slurrying in water at 1 hr and 24 hrs. After 48 hrs the material was observed to be predominantly amorphous | remained unchanged after slurrying, indicating a low hydration risk | remain unchanged | –
2 | 768.7 µg/mL | 2.8 µg/mL | 2 µg/mL | 0.4947 mg/mL | 0.6036 mg/mL | remained unchanged | 0.14% | 0.35% | – | non-hygroscopic | C[C@@H]1COC(Nc2ccc3ncnc(Nc4ccc(OCc5nccs5)c(Cl)c4)c3c2)=N1.O=C(O)CC(=O)O [malonate salt] | A change in solid form was observed by XRPD from pH1 and pH4.5 | remain unchanged after slurrying | no form change of the malonate salt on slurrying in water; also recorded: No disproportionation or hydration observed | remain unchanged after slurrying, indicating a low hydration risk; also recorded: No disproportionation or hydration observed | No change to the solid form; also recorded: no change in PXRD post DVS | good stability throughout the tests employed
3 | – | – | – | – | – | – | – | – | ca. 230 °C | – | C[C@@H]1COC(Nc2ccc3ncnc(Nc4ccc(OCc5nccs5)c(Cl)c4)c3c2)=N1 [varlitinib, (R)—N4-[3-Chloro-4-(thiazol-2-ylmethoxy)-phenyl]-N6-(4-methyl-4,5,-dihydro-oxazol-2-yl)-quinazoline-4,6-diamine] | – | – | – | – | – | –
